Assay results taken from publication PMC11478334, “Quaternized Curcumin Derivative—Synthesis, Physicochemical Characteristics, and Photocytotoxicity, Including Antibacterial Activity after Irradiation with Blue Light” (Molecules, 2024).
Read-outs that look alike come from different tables or passages of the source.

Key:
[1] = Photodecomposition quantum yields (photostability under visible light); assay type: physicochemical; conditions: for 10^−5 Φp (photodecomposition quantum yield): visible light over 450 nm; for ΦP (photodecomposition quantum yield) / calculated photodecomposition quantum yields, level: visible light λ ≥ 450 nm; for calculated photodecomposition quantum yields, level: solvent not stated
From the text: The absorption spectra of the studied curcumin derivatives 2 and 3 were monitored during the irradiation and compared with curcumin and zinc(II) phthalocyanine (ZnPc) as references (Figure 8). Under visible light irradiation (λ ≥ 450 nm), curcumin derivatives 2 and 3 only slightly decomposed. The calculated quantum yields were at the level of […]. […] Considering the obtained results, the morpholinoethyl and BF2 moieties tend to stabilize the curcumin core and prevent its photodecomposition. Partial reduction in light absorption (expressed by ε values) has also been noted for other photosensitizers subjected to the quaternization when 2-(morpholin-4-yl)ethoxy substituents were transformed into 2-(N-methylmorpholinium)ethoxy ones.
The photostability measurements were conducted in DMSO and DMF at ambient temperature under aerobic conditions according to the previously described method. A 150 W xenon lamp (Optel, Opole, Poland) was utilized as a light source. In order to separate the visible light (>450 nm), the HCC-16 cutting filter was used. The spectral changes under the irradiation were recorded with an OceanOptics Flame spectrophotometer equipped with a DT-MINI-2-GS light source (OceanOptics, Dunedin, FL, USA). The photodegradation quantum yields were then calculated using the previously presented equation [39, 73, 74, 76].

[2] = Aggregation studies by UV-vis serial dilution; assay type: physicochemical; conditions: in DMF
Description: The aggregation properties of the studied compounds were evaluated using statistical analysis of the UV–vis absorption spectra during serial dilution. […] This can be associated with the presence of a positive charge that prevents aggregation due to the repulsion of the same charges. […] According to the literature, DMSO can permeate into curcumin clusters and stabilize the non-aggregated molecules due to solvation.
The aggregation studies were performed at ambient temperature. Known amounts of 2, 3, and curcumin as a reference in volumetric flasks were dissolved in DMSO and DMF and left to stir overnight. Then, the solutions were diluted appropriately to achieve concentrations in the range between 1.5 × 10^−6 mol/dm^3 and 5.5 × 10^−5 mol/dm^3. The samples were then moved into quartz cuvettes (l = 10 mm, Hellma, Müllheim, Germany), and their spectra were recorded using a Shimadzu U-1900 spectrophotometer (Shimadzu, Kyoto, Japan). The recorded spectra and numerical data were then used for the determination of the dependence between the maximum peak absorption and the sample concentration according to the A = f(c) function, used further for statistical verification of the Lambert–Beer law.

MRC-5—lung fibroblasts = test: MTT cell viability assay; assay type: cell-based, human
Description: (§1) To determine the toxicity of the tested compounds against normal and tumor cells, a cell viability assay was performed using MTT dye. The following cell lines were used: PHDF—primary human dermal fibroblasts, MRC-5—lung fibroblasts, WM266-4—melanoma, and WM115—melanoma. Whenever possible, the IC50 value was calculated for each cell line. The IC50 results are reported in Table 9, while Figure 14 presents graphs illustrating the dependence of cell viability on the concentration of the tested compounds.
(§2) In order to analyze the cytotoxic effect of curcumin and compounds 2 and 3, different cell lines were used: PHDF—primary human dermal fibroblasts, MRC-5—lung fibroblasts, WM266-4—melanoma (low-melanotic), and WM115—melanoma (high-melanotic). All cell lines were seeded onto 96-well flat-bottom plates at a concentration of 15,000 cells/well. Curcumin (1) and compounds 2 and 3 were dissolved in the completed culture medium at the final concentrations of 5 µM, 10 µM, 20 µM, 30 µM, 40 µM, and 50 µM. The final volume of medium in each well was 200 µL. Cells which were not exposed to the tested compounds constituted a control group. After 24 h, each of the reagents was added to the cells. Control cells were not treated with synthesized reagents; they were incubated with a completed cell culture medium. The incubation of cells with 1, 2, or 3 lasted 24 and 48 h. Then, the medium was discarded, and the new medium containing MTT (3-(4,5-dimethylthiazol-2-yl)-2,5-diphenyltetrazolium bromide) (Affymetrix, Cleveland, OH, USA) at a final concentration of 0.5 mg/mL was added to the cell culture. Cells were incubated for 2.5 h in cell culture conditions. Next, the medium was removed, and 100 µL of DMSO (Thermo Scientific, Waltham, MA, USA) was added to dissolve the formed formazan crystals. The absorbance was read with a Multiskan plate reader at 570 nm and the background at 655 nm (Thermo Scientific, Waltham, MA, USA). The experiment was performed in triplicate.
(§3) PHDF cells were extracted from skin pieces collected following mastectomy procedures at the Greater Poland Cancer Centre in Poznań, Poland. Each time, informed patient agreement was acquired for the “The Cancer Genome Atlas (TCGA)” project to utilize biological material for scientific research purposes. […] The MRC-5, WM266-4, and WM115 cell lines were obtained from the American Type Culture Collection (ATCC). For culturing of the PHDF, WM266-4, and WM115 cell lines, the medium contained Dulbecco′s Modified Eagle′s Medium (DMEM) (Biowest, Nuaillé, France), 10% of fetal bovine serum (Biowest, Nuaillé, France), and 1% of penicillin/streptomycin agents (Merck Millipore, Darmstadt, Germany). Cells were incubated in a humidified incubator containing 5% CO2. The MRC-5 cell line was cultured similarly to the method described in our previous article. Briefly, cells were incubated at 37 °C in an atmosphere enriched with 5% CO2. The basic culture medium was Dulbecco’s Modified Eagle’s Medium (DMEM) (Biowest, Nuaillé, France) supplemented with 10% fetal bovine serum (FBS) (Biowest, Nuaillé, France) with the addition of 2 mM L-glutamine and 5% non-essential amino acid solution.

[3] = test system: PHDF—primary human dermal fibroblasts; test: MTT cell viability assay; assay type: cell-based
Description: as §1, §2, §3

[4] = test system: WM115—melanoma (high-melanotic); test: MTT cell viability assay; assay type: cell-based
Description: as §1, §2, §3

[5] = Homo sapiens, Fibroblast, 24 h incubation, read-out: IC50 24 h
[6] = Homo sapiens, Fibroblast, 48 h incubation, read-out: IC50 48 h (converted)
[7] = Homo sapiens, Fibroblast, 48 h incubation, read-out: IC50 48 h
[8] = 24 h incubation, read-out: IC50 24 h
[9] = 48 h incubation, read-out: IC50 48 h (converted)

| ΦP (photodecomposition quantum yield) ([1]; DMF) | ΦP (photodecomposition quantum yield) ([1]; DMSO) | Compound | 10^−5 Φp (photodecomposition quantum yield) ([1]; DMF) | 10^−5 Φp (photodecomposition quantum yield) ([1]; DMSO) | calculated photodecomposition quantum yields, level [1] | aggregation [2] | IC50 (MRC-5—lung fibroblasts; [5]) [µM] | IC50 (MRC-5—lung fibroblasts; [6]) [µM] | IC50 [3, 5] [µM] | IC50 [3, 7] [µM] | IC50 [4, 8] [µM] | IC50 [4, 9] [µM] | IC50 (MRC-5—lung fibroblasts; [8]) [µM] | IC50 (MRC-5—lung fibroblasts; [9]) [µM] | IC50 [3, 8] [µM] | IC50 ([3]; 48 h incubation, read-out: IC50 48 h) [µM] |
| --- | --- | --- | --- | --- | --- | --- | --- | --- | --- | --- | --- | --- | --- | --- | --- | --- |
| 2.90 × 10^−5 | 5.41 × 10^−5 | F[B-]1(F)OC(/C=C/c2ccc(OCCN3CCOCC3)cc2)=CC(/C=C/c2ccc(OCCN3CCOCC3)cc2)=[O+]1 [Compound 2] | 2.90 10^−5 | 5.41 10^−5 | ~10^−4 | strong aggregation | > 50 | 3.8 | > 50 | 28.4 | > 50 | > 50 |  |  |  |  |
|  |  | C[N+]1(CCOc2ccc(C=CC3=CC(C=Cc4ccc(OCC[N+]5(C)CCOCC5)cc4)=[O+][B-](F)(F)O3)cc2)CCOCC1 [Compound 3] | 20.10 10^−5 | 6.13 10^−5 | ~10^−4 | negligible | > 50 | > 50 | > 50 | > 50 | > 50 | > 50 |  |  |  |  |
|  |  | Curcumin [reference compound] | 9.99 10^−5 | 8.31 10^−5 |  | strong aggregation |  |  |  |  | 39.5 ± 9.4 | 18.1 | 39.5 ± 8.8 | 18.1 | > 50 | 24.6 |
